Data as given in patent US10626144B2, “Peptide derivatives and uses thereof” (Nosopharm, priority 2014, dated 2020).
pIC50: −log10 of the molar value. Like-named read-outs stand apart in the source and are kept apart here. Numbered stars: 1 amine (or outer) side, 2 acyl side, 3 side chain; on linkers, the order of the positions; unused ones are H or OH. Square brackets hold non-standard residues; d marks the D form. Peptide text beside a SMILES is read from it. * marks the point of attachment. Phe(3-CONH2) = NC(=O)c1cccc(C[C@H](N)C(=O)O)c1; X1 = O=C([C@H](Cc1cc(F)c(F)cc1F)N[*:1])[*:2]; Abu(4,4,4-F3) = N[C@@H](CC(F)(F)F)C(=O)O; Phe(4-CN) = N#Cc1ccc(C[C@H](N)C(=O)O)cc1; Phe(4-Cl) = N[C@@H](Cc1ccc(Cl)cc1)C(=O)O; Phe(3-F) = N[C@@H](Cc1cccc(F)c1)C(=O)O; Phe(3-Me) = Cc1cccc(C[C@H](N)C(=O)O)c1; Dab(3S-OH) = NC[C@H](O)[C@H](N)C(=O)O; Phe(2-F) = N[C@@H](Cc1ccccc1F)C(=O)O; ΔZArg = N=C(N)NCC/C=C(\N)C(=O)O; dOrn = NCCC[C@@H](N)C(=O)O; NH(CH2)4NH2 = NCCCCN*

How the values were obtained:
[1] = tested on: Ec #3 (EGB957); assay: MIC / resistance profile, multidrug-resistant strain; settings: multidrug-resistant E. coli EGB957
[2] = tested on: Ec #1 (NCTC13476); assay: as above; settings: multidrug-resistant E. coli NCTC13476
[3] = tested on: Pseudomonas aeruginosa ATCC 27853; assay: MIC, broth microdilution (CLSI), reference strain; settings: CAMHB
[4] = tested on: Staphylococcus aureus ATCC 13709; assay: MIC, broth microdilution (CLSI), reference strain; settings: CAMHB
[5] = tested on: Ec #4 (GUE); assay: MIC / resistance profile, multidrug-resistant strain; settings: multidrug-resistant E. coli GUE
[6] = tested on: Ec #2 (MIN); assay: as above; settings: multidrug-resistant E. coli MIN
[7] = tested on: Ec #5 (DSM22315); assay: as above; settings: multidrug-resistant E. coli DSM22315
[8] = tested on: Escherichia coli ATCC 25922; assay: MIC, broth microdilution (CLSI), reference strain; settings: CAMHB
[9] = target: N-type calcium channels (Cav2.2) (Rattus norvegicus (Rat), UniProt Q02294); assay: biochemical; assay type: binding
[10] = tested on: Acinetobacter baumannii ATCC 19606; assay: MIC, broth microdilution (CLSI), reference strain; settings: CAMHB
[11] = class symbol, rat cerebral cortex, [125I]ω-conotoxin GVIA 0.001 nM, 30 minutes at room temperature, read-out: IC50 Cav2.2

SMILES | MIC Ec#3 [1] | MIC Ec#1 [2] | Pa: MIC Pseudomonas aeruginosa ATCC 27853 [3] | Sa: MIC Staphylococcus aureus ATCC 13709 [4] | MIC Ec#4 [5] | MIC Ec#2 [6] | MIC Ec#5 [7] | Ec: MIC Escherichia coli ATCC 25922 [8] | pIC50 [9] | pIC50 ([9]; value in brackets, rat cerebral cortex, [125I]ω-conotoxin GVIA 0.001 nM, read-out: IC50 Cav2.2) | Ab: MIC Acinetobacter baumannii ATCC 19606 [10] | pIC50 [9, 11]
C[C@H](NC(=O)[C@@H](NC(=O)[C@@H](N)CCCCN)[C@@H](O)CN)C(=O)NCC(=O)N[C@H](CCCN)C(=O)N1CCC[C@H]1C(=O)N[C@@H](CC(F)(F)F)C(=O)N[C@@H](CCCCN)C(=O)N/C(=C\CCNC(=N)N)C(=O)O [24.109] (H-K[Dab(3S-OH)]AG[dOrn]P[Abu(4,4,4-F3)]K[ΔZArg]-OH) | + (≤32 μg/mL) | + (≤32 μg/mL) | − (>32 μg/mL) | ++ (≤8 μg/mL) | + (≤32 μg/mL) | + (≤32 μg/mL) | + (≤32 μg/mL) | ++ (≤8 μg/mL) | < 6.52 | 6.00 | − (>32 μg/mL) | 
C[C@H](NC(=O)[C@@H](NC(=O)[C@@H](N)CCCCN)[C@@H](O)CN)C(=O)NCC(=O)N[C@H](CCCN)C(=O)N1CCC[C@H]1C(=O)N[C@@H](Cc1ccc(C#N)cc1)C(=O)N[C@@H](CCCCN)C(=O)N/C(=C\CCNC(=N)N)C(=O)O [24.100] (H-K[Dab(3S-OH)]AG[dOrn]P[Phe(4-CN)]K[ΔZArg]-OH) | ++ (≤8 μg/mL) | ++ (≤8 μg/mL) | − (>32 μg/mL) | ++ (≤8 μg/mL) | ++ (≤8 μg/mL) | ++ (≤8 μg/mL) | + (≤32 μg/mL) | ++ (≤8 μg/mL) |  |  | − (>32 μg/mL) | 
C[C@H](NC(=O)[C@@H](NC(=O)[C@@H](N)CCCCN)[C@@H](O)CN)C(=O)NCC(=O)N[C@H](CCCN)C(=O)N1CCC[C@H]1C(=O)N[C@@H](Cc1ccccc1F)C(=O)N[C@@H](CCCCN)C(=O)N/C(=C\CCNC(=N)N)C(=O)O [24.151] (H-K[Dab(3S-OH)]AG[dOrn]P[Phe(2-F)]K[ΔZArg]-OH) | + (≤32 μg/mL) | + (≤32 μg/mL) | − (>32 μg/mL) | ++ (≤8 μg/mL) | + (≤32 μg/mL) | + (≤32 μg/mL) | ++ (≤8 μg/mL) | ++ (≤8 μg/mL) |  |  | − (>32 μg/mL) | < 6.52
C[C@H](NC(=O)[C@@H](NC(=O)[C@@H](N)CCCCN)[C@@H](O)CN)C(=O)NCC(=O)N[C@H](CCCN)C(=O)N1CCC[C@H]1C(=O)N[C@@H](Cc1cc(F)c(F)cc1F)C(=O)N[C@@H](CCCCN)C(=O)N/C(=C\CCNC(=N)N)C(=O)O [24.77] (H-K[Dab(3S-OH)]AG[dOrn]P[X1]K[ΔZArg]-OH) | ++ (≤8 μg/mL) | + (≤32 μg/mL) | − (>32 μg/mL) | ++ (≤8 μg/mL) | + (≤32 μg/mL) | + (≤32 μg/mL) | + (≤32 μg/mL) | ++ (≤8 μg/mL) |  |  | − (>32 μg/mL) | 
COc1ccc(C[C@H](NC(=O)[C@@H]2CCCN2C(=O)[C@@H](CCCN)NC(=O)CNC(=O)[C@H](C)NC(=O)[C@@H](NC(=O)[C@@H](N)CCCCN)[C@@H](O)CN)C(=O)N[C@@H](CCCCN)C(=O)N/C(=C\CCNC(=N)N)C(=O)O)cc1 [24.154] (H-K[Dab(3S-OH)]AG[dOrn]PY(Me)K[ΔZArg]-OH) | ++ (≤8 μg/mL) | ++ (≤8 μg/mL) | − (>32 μg/mL) | ++ (≤8 μg/mL) | ++ (≤8 μg/mL) | ++ (≤8 μg/mL) | ++ (≤8 μg/mL) | ++ (≤8 μg/mL) |  |  | − (>32 μg/mL) | < 6.52
Cc1cccc(C[C@H](NC(=O)[C@@H]2CCCN2C(=O)[C@@H](CCCN)NC(=O)CNC(=O)[C@H](C)NC(=O)[C@@H](NC(=O)[C@@H](N)CCCCN)[C@@H](O)CN)C(=O)N[C@@H](CCCCN)C(=O)N/C(=C\CCNC(=N)N)C(=O)O)c1 [24.153] (H-K[Dab(3S-OH)]AG[dOrn]P[Phe(3-Me)]K[ΔZArg]-OH) | ++ (≤8 μg/mL) | ++ (≤8 μg/mL) | − (>32 μg/mL) | ++ (≤8 μg/mL) | + (≤32 μg/mL) | ++ (≤8 μg/mL) | ++ (≤8 μg/mL) | ++ (≤8 μg/mL) |  |  | − (>32 μg/mL) | < 6.52
C[C@H](NC(=O)[C@@H](NC(=O)[C@@H](N)CCCCN)[C@@H](O)CN)C(=O)NCC(=O)N[C@H](CCCN)C(=O)N1CCC[C@H]1C(=O)N[C@@H](Cc1c[nH]c2ccccc12)C(=O)N[C@@H](CCCCN)C(=O)N/C(=C\CCNC(=N)N)C(=O)O [24.156] (H-K[Dab(3S-OH)]AG[dOrn]PWK[ΔZArg]-OH) | ++ (≤8 μg/mL) | + (≤32 μg/mL) | − (>32 μg/mL) | ++ (≤8 μg/mL) | ++ (≤8 μg/mL) | ++ (≤8 μg/mL) | ++ (≤8 μg/mL) | ++ (≤8 μg/mL) |  |  | − (>32 μg/mL) | 
C[C@H](NC(=O)[C@@H](NC(=O)[C@@H](N)CCCCN)[C@@H](O)CN)C(=O)NCC(=O)N[C@H](CCCN)C(=O)N1CCC[C@H]1C(=O)N[C@@H](Cc1cccc(F)c1)C(=O)N[C@@H](CCCCN)C(=O)N/C(=C\CCNC(=N)N)C(=O)O [24.152] (H-K[Dab(3S-OH)]AG[dOrn]P[Phe(3-F)]K[ΔZArg]-OH) | + (≤32 μg/mL) | + (≤32 μg/mL) | − (>32 μg/mL) | ++ (≤8 μg/mL) | + (≤32 μg/mL) | + (≤32 μg/mL) | ++ (≤8 μg/mL) | ++ (≤8 μg/mL) |  |  | − (>32 μg/mL) | < 6.52
C[C@H](NC(=O)[C@@H](NC(=O)[C@@H](N)CCCCN)[C@@H](O)CN)C(=O)NCC(=O)N[C@H](CCCN)C(=O)N1CCC[C@H]1C(=O)N[C@@H](Cc1cccc(C(N)=O)c1)C(=O)N[C@@H](CCCCN)C(=O)N/C(=C\CCNC(=N)N)C(=O)O [24.90] (H-K[Dab(3S-OH)]AG[dOrn]P[Phe(3-CONH2)]K[ΔZArg]-OH) | ++ (≤8 μg/mL) | ++ (≤8 μg/mL) | − (>32 μg/mL) | ++ (≤8 μg/mL) | ++ (≤8 μg/mL) | ++ (≤8 μg/mL) | ++ (≤8 μg/mL) | ++ (≤8 μg/mL) |  |  | − (>32 μg/mL) | 
CC[C@H](C)[C@H](NC(=O)[C@@H](NC(=O)[C@@H](N)CCCCN)[C@@H](O)CN)C(=O)NCC(=O)N[C@H](CCCN)C(=O)N1CCC[C@H]1C(=O)N[C@@H](Cc1cnc[nH]1)C(=O)N[C@@H](CCCCN)C(=O)N/C(=C\CCNC(=N)N)C(=O)O [27.2] (H-K[Dab(3S-OH)]IG[dOrn]PHK[ΔZArg]-OH) |  |  | − (>32 μg/mL) | + (≤32 μg/mL) |  |  |  | − (>32 μg/mL) |  |  | − (>32 μg/mL) | < 6.52
C[C@H](NC(=O)[C@@H](NC(=O)[C@@H](N)CCCCN)[C@@H](O)CN)C(=O)NCC(=O)N[C@H](CCCN)C(=O)N1CCC[C@H]1C(=O)N[C@@H](Cc1ccc(Cl)cc1)C(=O)N[C@@H](CCCCN)C(=O)N/C(=C\CCNC(=N)N)C(=O)O [24.97] (H-K[Dab(3S-OH)]AG[dOrn]P[Phe(4-Cl)]K[ΔZArg]-OH) |  |  | − (>32 μg/mL) | ++ (≤8 μg/mL) |  |  |  | ++ (≤8 μg/mL) |  |  | − (>32 μg/mL) | < 6.52
C[C@H](NC(=O)[C@@H](NC(=O)[C@@H](N)CCCCN)[C@@H](O)CN)C(=O)NCC(=O)N[C@H](CCCN)C(=O)N1CCC[C@H]1C(=O)N[C@@H](Cc1cnc[nH]1)C(=O)N[C@@H](CCCCN)C(=O)N/C(=C\CCNC(=N)N)C(=O)N[C@@H](CCCCN)C(=O)NCCCCN [24.1] (H-K[Dab(3S-OH)]AG[dOrn]PHK[ΔZArg]K-{NH(CH2)4NH2}) |  |  | + (≤32 μg/mL) | ++ (≤8 μg/mL) |  |  |  | ++ (≤8 μg/mL) |  |  | + (≤32 μg/mL) | > 7.52
